Assays:
[1] = test system: colon carcinoma cell line HCT116p53ko; assay: Crystal violet assay, HCT116p53ko; assay type: cell-based; conditions: n = 3
Description: (§1) For quantification, cells are treated with crystal violet, a dye that stains proteins. After washing away of excess dye, the remaining crystal violet is dissolved in a sodium citrate solution. The solution is analyzed photometrically at 590 nm. The optical density of this solution depends on the concentration of crystal violet and therefore on the amount of cells. […] To reduce effects of evaporation, only the inner 60 wells of 96-well plates (coated with 0.1% gelatine solution for studies with HUVEC) were used for experiments.
(§2) Cells were treated with 2 μl of the working solution 24 h after seeding. Final compound concentrations in the well were 10 μM for the first round of screening. The final DMSO concentration was 0.5%. […] After finishing the addition of compounds, the T0-plate was stained with crystal violet for giving the cell density at time point zero. […] After air drying of the plates the crystal violet on the cells was dissolved in 100 μl of sodium citrate solution, and the absorption was measured with a plate reader at 590 nm.
(§3) Mean values were corrected with the absorption of stained medium and the corrected absorption of T0 cells. Cell growth was calculated relative to DMSO control for data comparison. IC50 values (50% inhibition of cell growth) were determined with GraphPad Prism® (Version 4.03) using nonlinear regression (sigmoidal dose-response with variable slope). […]

[2] = test system: melanoma cell line SK-MEL 5; assay: Crystal violet assay, SK-MEL 5; assay type: cell-based; conditions: Homo sapiens, n = 3
Description: as §1, §2, §3

[3] = test system: breast cancer cell line MDA MB231; assay: Crystal violet assay, MDA MB231; assay type: cell-based; conditions: Homo sapiens, MDA-MB-231, n = 3
Description: as §1, §2, §3

[4] = test system: vascular smooth muscle cells (VSMC); assay: Crystal violet assay, VSMC; assay type: cell-based; conditions: Rattus norvegicus, n = 3
Description: as §1, §2, §3

SW480 cells = assay: Cell cycle analysis by flow cytometry; assay type: cell-based; conditions: 0.03, 0.1 or 0.3 μM compared to DMSO control; FIG. 5
Description: FIG. 5: Cell cycle analysis using SW480 cells treated with 0 μM (control using DMSO), 0.03 μM, 0.1 μM or 0.3 μM of compound 22.
To quantify the cellular DNA content, DNA is visualized by staining with propidium iodide (PI), a fluorescent dye which binds to double stranded DNA. To allow PI to enter cells they are permeabilized with Triton-X. The fluorescence intensity per cell, which correlates with its DNA content, is measured by flow cytometry. The G0/G1 peak represents cells in the usual diploid state. Apoptotic cells are characterized through a peak in the FACS histogram below the G0/G1 peak (sub G1) (Nicoletti I et al. J. Immunol. Methods 1991, 139 (2), 271-279):
Since cells in different phases of the cell cycle have a different DNA content this method can also be used for measuring the amount of cells in different stages of the cell cycle. Cells were seeded in 12-well plates at a density 10 fold more than used in 96-well plates in 2 ml growth media. Cells were incubated for one day, until they reached 50-70% confluence. Then they were stimulated with different concentrations of the test compounds, according to the data available from proliferation assays. […]
Cells were measured by flow cytometry 50-150 events/second with a total of 10 000 events using channel FL2-A. Data were analyzed with CellQuest Pro™. Mean values from different repeats were analyzed using GraphPad Prism® 4.03.

| SMILES | IC50 [1] [nM] | IC50 [2] [nM] | IC50 [3] [nM] | IC50 [4] [nM] | “DNA>4N” portion (inhibition of cell division) (SW480 cells) | “Sub G1” portion (induction of apoptosis) (SW480 cells) | melting point [°C] |
| --- | --- | --- | --- | --- | --- | --- | --- |
| COc1ccccc1/C=C/C=C/C(=O)c1cc(OC)c(OC)c(OC)c1 [Compound 1, 5-(2-Methoxyphenyl)-1-(3′,4′,5′-trimethoxyphenyl)-2,4-pentadiene-1-one] | 100 | 150 | 630 | > 100000 | – | – | – |
| CCOc1ccccc1C(=O)/C=C/c1ccc2ccccc2c1 [Compound 22, 3-(2-Naphthyl)-1-(2′-ethoxyphenyl)-2-propene-1-one] | – | – | – | – | increase | increase | 96 to 97 |

— patent US20130123367A1, “VINYLOGOUS CHALCONE DERIVATIVES AND THEIR MEDICAL USE” (MEDIZINISCHE UNIVERSITAT WIEN, priority 2010, published 2013)
